Assay results taken from US10350315B2, “Quinoline-3-carboxamide compounds and their use in diagnosis” (Westfaelische Wihelms-Universitaet Muenster, priority 2014, dated 2019).
Entries after “also recorded” stand apart in the source; their conditions may differ.

Experiments:
[1] = target: T1, S100A9 (Mus musculus, UniProt P31725); test: Collagen induced arthritis mouse model, SPECT/CT; assay type: in vivo, DBA/1j mice; conditions: 55 MBq per mouse i.v.
T1 construct: from tissue; host or cells: living mice (inflamed ear, joints) and explanted mouse heart, aorta and lungs
T1 sequence (P31725 2-113 limits assumed): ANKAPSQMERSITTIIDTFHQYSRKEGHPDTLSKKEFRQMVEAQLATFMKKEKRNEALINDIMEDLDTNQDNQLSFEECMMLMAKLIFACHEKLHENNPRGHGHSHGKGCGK
Method: FIG. 20: Accumulation of [^99mTc]FEB054 in a mouse model of collagen induced arthritis. The tracer was intravenously injected at a dose of 55 MBq per mouse. […] The tracer distribution was measured in vivo 60 min post injection using SPECT/CT.
Induction and imaging of CIA: Arthritis was induced in DBA/1j mice by injection of bovine collagen type II. Bovine collagen type II (bCII, MD Biosciences) was dissolved in 0.05 M acetic acid at a concentration of 2 mg/ml. DBA/1j mice were injected subcutaneously at the tail base with 100 μg bCII emulsified in CFA (Difco) and boostered on day 21 with 100 μg bCII in IFA at the same location. Mice were regularly inspected from day 14 after disease induction and scored for swelling, erythema and deformation of each joint three times a week. Imaging was performed after arthritis was clinically detectable in the majority of treated animals at indicated time points after tracer application of either Cy5.5-CES271 or [99mTc]FEB054.
SPECT/CT imaging of inflamed joints was recorded 1 h after iv injection of [99mTc]FEB054 (55 MBq of [99mTc]FEB054 per mouse). Individual feet of the mice were analysed separately according to the histological score. […] Even single affected joints could be clearly identified.

[2] = Human blood serum stability at 37 °C (gradient HPLC); assay type: in vitro ADME; conditions: freshly prepared human blood serum, over 120 min
Method: FIG. 17: Human serum blood stability of [^99mTc]FEB054. […] Blood serum stability was tested in freshly prepared human blood serum at 37° C. Samples were taken after 10, 20, 30, 60, 90 and 120 minutes and analysed using a gradient HPLC system. 5 MBq of [^99mTc]FEB054 in 20 μL PBS buffer was added to 200 μL of a freshly prepared human blood serum sample and incubated at 37° C. After 10, 20, 30, 60, 90 and 120 minutes, 20 μL were separated and diluted with 50 μL dichloromethane and 50 μL methanol. After centrifugation, 10 μL of the solution were analyzed via gradient-HPLC using a Knauer system with two Smartline 1000 pumps, Smartline UV detector 2500 (Herbert Knauer GmbH), a GabiStar γ-detector (Raytest lsotopenmessgeräte GmbH) and a reversed phase C18 column (Nucleosil 100-5 C-18 column 4.6 mm×250 mm). Eluent A: water (0.1% TFA). Eluent B: Methanol (0.1% TFA). […]
Blood serum stability was tested in freshly prepared human blood serum at 37° C. […] Samples were taken after 10, 20, 30, 60, 90 and 120 minutes and analysed using a gradient HPLC system. […] After centrifugation, 10 μl of the solution were analysed via gradient-HPLC using a Knauer system with two Smartline1000 pumps, Smartline UV-detector 2500 (Herbert Knauer GmbH), a GabiStar γ-detector (Raytest lsotopenmessgeräte GmbH) and a reverse phase […] column 4.6 mm×250 mm). […]

[3] = Biodistribution and elimination of [99mTc]FEB054 in healthy Balb/c mice (SPECT/CT); assay type: in vivo
Method: FIG. 18: Biodistribution (A) and elimination (B) of [^99mTc]FEB054 in healthy Balb/c mice. The tracer was intravenously injected at a dose of 62 MBq per mouse. The tracer accumulation and elimination was measured 0-90 min post injection.
Mice were injected and scanned under isoflurane/oxygen inhalation anaesthesia (1.4-1.8% isoflurane, 0.5 l O2/min). All animals were injected with a target dose of 2.5 MBq/g body weight) and a total injection volume ≤150 μl. For the image acquisition we used a NanoSPECT/CT-Plus preclinical camera (Mediso Medical Imaging Systems; Hungary), a 4-head gamma camera equipped with multi-pinhole collimators and a cone beam CT imaging system. In the shown studies we employed 9 pinholes/head with a diameter of 1.0 mm and a field of view of 30 mm×16 mm. 10 projections/scan and 60 seconds/projection resulting in a minimum of 100 kcounts/projection (in order to achieve high quality images with high statistics) were acquired. At the end of the SPECT measurement a CT scan was performed (same FOV as the SPECT scan) (55 kVp; 180 projections/rotation; 500 ms exposure time and 1 mm pitch with constant statistics). Data analysis was performed by CT based definitions of regions-of-interest and quantitative mesurements are expressed as kBq/mL.

[4] = target: T1, S100A9; test: Irritant contact dermatitis (ICD) mouse model, SPECT/CT; assay type: in vivo, mice; conditions: 66 MBq per mouse i.v.
Method: FIG. 19: Accumulation of [^99mTc]FEB054 in the inflamed ear and muscle in a mouse model of contact dermatitis (ICD). The tracer was intravenously in a mouse model of contact dermatitis of the left ear in WT mice (=inflamed, right hand side) at a dose of 66 MBq per mouse and measured 0-60 min post injection.
Mice were injected and scanned under isoflurane/oxygen inhalation anaesthesia (1.4-1.8% isoflurane, 0.5 l O2/min). All animals were injected with a target dose of 2.5 MBq/g body weight) and a total injection volume ≤150 μl. […] Data analysis was performed by CT based definitions of regions-of-interest and quantitative mesurements are expressed as kBq/mL.
ICD was induced by the application of 20 μl 1% croton oil in olive oil-acetone (1:4) to the ventral surface of the left ear of mice for 24 h (n=5 per group), whereas the right ear served as a control. […] In the Cy7 channel the quantum yield is much lower compared to the Cy5.5 channel, which means that the recorded signal with Cy5.5-CES271 is higher than compared to […] (right image; FIG. 21). […] The labelling efficacy (dye/antibody ratio) was determined on the basis of ultraviolet-spectra of the purified dye-antibody compound using PBS as a reference buffer. […]

## fac-[^99mTc(CO)3(5-ethyl-4-hydroxy-1-methyl-N-{1-(1-methyl-1H-imidazol-2-yl)-2-[(1-methyl-1H-imidazol-2-yl)methyl]-5,8,11-trioxa-2-azatridecan-13-yl}-2-oxo-N-phenyl-1,2-dihydroquinoline-3-carboxamide)]^+ [[^99mTc]FEB054]
[1]; 1 h after injection
  Correlation of SPECT signal with clinical scoring: excellent correlation
[1]; 60 min post injection
  Tracer accumulation in inflamed joints of the hind limbs versus healthy control mouse: tracer accumulation in the inflamed joints
  Tracer accumulation in liver, intestines, kidneys and urinary bladder: intensive tracer accumulation
[2]
  Human blood serum stability (decomposition): very good; also recorded: no decomposition
[3]; 62 MBq per mouse i.v.
  Accumulation of the tracer in the liver and intestines: intensive accumulation
  Time of hepato-biliary elimination: ≤ 20 min
[3]; 62 MBq per mouse i.v., 0-90 min post injection
  Route of elimination: predominant hepato-biliary elimination
[3]; 62 MBq per mouse i.v., first 10 minutes
  Tracer availability in the blood: good tracer availability in the blood
[3]; mouse, in vivo
  Blood half-life: suitable
[4]; 45 minutes post injection
  Tracer uptake in the inflamed ear compared to the healthy control ear: higher tracer uptake
[4]; dynamic imaging 0-60 min post injection
  Uptake ratios inflamed ear versus blood and muscle: increasing uptake ratios
